Measurements taken from publication PMC4607724, “Discovery and optimisation studies of antimalarial phenotypic hits” (European Journal of Medicinal Chemistry, 2015).
Converted amounts (≈) assume the structure as drawn. Read-outs that look alike come from different tables or passages of the source.

Experiments:
[1] = test system: P. falciparum K1; assay: In vitro activity against erythrocytic stages of P. falciparum, 3H-hypoxanthine incorporation assay; format: cell-based; conditions: Plasmodium falciparum
Description: (§1) VI. Design and Results of the in vitro & in vivo Studies.
A. Drug inhibition of in vitro cultured P. falciparum parasite:[2] All in vitro assays were carried out twice independently in duplicate.In vitro activity against theerythrocytic stages of P. falciparum was determined by using a 3H-hypoxanthine incorporation assay, using the chloroquine and pyrimethamine resistant K1 strain and the standard drugs chloroquine (Sigma C6628) and artemisinin (Arteannuin, Qinghaosu; Sigma 36,159- 3). Compounds were dissolved in DMSO at 10 mg/mL and added to parasite cultures incubated in RPMI 1640 medium without hypoxanthine, supplemented with HEPES (5.94 g/L), NaHCO3 (2.1 g/L), neomycin (100U/mL), AlbumaxR (5 g/L), and washed human red cells A+ at 2.5% haematocrit (0.3% parasitaemia). Serial doubling dilutions of each drug were prepared in 96-well microtiter plates and incubated in a humidified atmosphere at 37 °C; 4% CO 2, 3% O2, 93% N2. After 48 h, 50 µLof 3H-hypoxanthine (= 0.5 µCi) was added to each well of the plate. The plates were incubated for an additional 24 h under the same conditions. The plates were then harvested with a Betaplate cell harvester (Wallac, Zurich, Switzerland), and the red blood cells were transferred onto a glass fiber filter and then washed with distilled water. The dried filters were inserted into a plastic foil with 10 mL of scintillation fluid and were counted in a Betaplate™ liquid scintillation counter (Wallac, Zurich, Switzerland); IC50values were calculated from sigmoidal inhibition curves using Microsoft Excel. […]

[2] = Metabolic stability, NADPH-dependent degradation in mouse liver microsomes; format: in vitro ADME
Description: (§2) Compound 20 (1 µM) was incubated at 37 ° C with human or mouse liver microsomes (BD Gentest, Discovery Labware Inc., Woburn, MA). The reaction was initiated by the addition of an NADPH-regenerating system containing 1 mg/mL NADP, 1 mg/mL glucose-6-phosphate, 1 U/mL glucose-6-phosphate dehydrogenase, and 0.67 mg/mL MgCl2and quenched at various time points over the incubation period (60 min) by the addition of ice cold acetonitrile. Samples were also incubated in the absence of co-factor to monitor for non-specific degradation. The relative loss of parent compound and formation of metabolic products were monitored by LC/MS using a Waters/Micromass LCT instrument.
(§3) Compound concentration versus time data were fitted to an exponential decay function to determine the first-order rate constant for substrate depletion which was used to obtain the in vitro intrinsic clearance (in vitro CLint), and then scaled to predict the human intrinsic clearance (scaling parameters included liver mass of 25.7 g liver/kg body weight for human and 87.5 g liver/kg body weight for mouse and microsomal protein content of 45 mg microsomal protein/g liver mass for […]
(§4) both species)[10]. […]

[3] = In vitro cytotoxicity assay in L-6 cells (Alamar Blue); conditions: rat
Description: as §1
A. Drug inhibition of in vitro cultured P. falciparum parasite:[2] […]
B. In vitro cytotoxicity assay: [2] Assays were performed in 96-well microtiter plates, each well containing 100 µl of RPMI 1640 medium supplemented with 1% L-glutamine (200mM) and 10% fetal bovine serum, and 4 x 10^4 L-6 cells (a primary cell line derived from rat skeletal myoblasts).
Serial drug dilutions of seven 3-fold dilution steps covering a range from 90 to 0.123 µg/mL were prepared. After 72 h of incubation the plates were inspected under an inverted microscope to assure growth of the controls and sterile conditions. 10µL of Alamar Blue was then added to each well and the plates incubated for another 2 h. Then the plates were read with a Spectramax Gemini XS microplatefluorometer (Molecular Devices Cooperation, Sunnyvale, CA, USA) using an excitation wave length of 536 nm and an emission wave length of 588 nm. Data were analysed using the microplate reader software Softmax Pro (Molecular Devices Cooperation, Sunnyvale, CA, USA).

[4] = Metabolic stability, NADPH-dependent degradation in human liver microsomes; format: in vitro ADME
Description: as §2, §3, §4

[5] = Chromatographic LogD estimation (gLogD); format: physicochemical; conditions: chromatographic gLogD technique, pH 7.4
Description: (§5) IV. Physicochemical Evaluation […]
Chromatographic Log D Estimation: The partition coefficient (gLogDpH 7.4) of 20 was estimated by correlation of its chromatographic retention properties with the retention characteristics of a series of standard compounds with known partition coefficient values. Data were collected using a Waters 2785 HPLC with a Waters 2487 dual channel UV detector with a Phenomenex Synergi Hydro-RP 4 µm (30 mm x 2 mm) column. The mobile phase was aqueous buffer (50 mM ammonium acetate, pH 7.4) and acetonitrile with an acetonitrile gradient of 0-100% over 10 min. Compound elution was monitored at 220 and 254 nm. […]

[6] = Aqueous solubility estimation by nephelometry; format: physicochemical; conditions: 1% DMSO
Description: as §5
Solubility Estimation: Aqueous solubility was estimated by nephelometry. A concentrated
stock solution prepared in DMSO was spiked into either pH 6.5 phosphate buffer or 0.01 N HCl
(approx. pH 2.0) with the final DMSO concentration being 1%. Samples were then analyzed by
Nephelometry to determine the solubility range as described previously.[9] […]

[7] = test system: P. falciparum; set-up: method as in PMID 23918316, PMID 23517371; conditions: cited from earlier work
[8] = test system: P. berghei ANKA GFP; assay: In vivo antimalarial efficacy, P. berghei mouse model (4 days treatment); set-up: species or system Plasmodium berghei; conditions: 10 mg/kg/day × 4, ip, NMRI mice
Description: C. In vivo antimalarial efficacy studies (4 days treatment).[2]
In vivo antimalarial activity was assessed basically as previously described. Groups of three female […]
GFP-transfected P. berghei strain ANKA. .Unless otherwise indicated compounds were formulated in 100% DMSO, diluted 10-fold in distilled water and administered intraperitoneally in a volume of 10 mL kg-1 on four consecutive days (4, 24, 48 and 72 h post infection). Parasitemia was determined on day 4 post infection (24 h after last treatment) by FACS analysis. Activity was calculated as the difference between the mean per cent parasitaemia for the control (n=5 mice) and treated groups expressed as a per cent relative to the control group. The survival time in days was also recorded up to 30 days after infection. A compound was considered curative if the animal survived to day 30 after infection with no detectable parasites. In vivo efficacy studies in mice were conducted at the Swiss Tropical and Public Health Institute (Basel) according to the rules and regulations for the protection of animal rights ("Tierschutzverordnung") of the Swiss "BundesamtfürVeterinärwesen". They were approved by the veterinary office of Canton Basel-

[9] = K1 strain (chloroquine and pyrimethamine resistant), means of two independent assays, read-out: P. falc. EC50
[10] = L-6 cells (rat skeletal myoblasts)

SMILES | EC50 [1, 9] [µM] | EC50 at 72 h [3, 10] [µM] | melting point | further results
Cc1cc(/C=C2\S/C(=N\c3ccccc3)N(C3CCCCC3)C2=O)c(C)n1-c1ccc(F)cc1 [Compound 20, (2Z, 5Z)-3-Cyclohexyl-5-((1-(4-fluorophenyl)-2,5-dimethyl-1H-pyrrol-3-yl)methylene)-2-(phenylimino)thiazolidin-4-one] | 2 | > 190 | – | NADPH-dependent degradation ([2]; incubation with mouse liver microsomes): rapid NADPH-dependent degradation; CLint scaled at 1 µM ([2]; liver microsomes, mouse, scaled from in vitro CLint, read-out: Microsome predicted in vivo CLint): 216 mL/min/kg; In vitro CLint ([2]; mouse liver microsomes, 1 µM, 37 °C, NADPH): 0.055 ml/min/mg Protein; Metabolites detected ([2]; mouse liver microsomes, LC/MS): no obvious metabolites were detected and None; Microsome predicted hepatic extraction ratio EH ([2]; mouse, well-stirred model): 0.71; Metabolites detected ([4]; human liver microsomes, LC/MS): no obvious metabolites were detected and None; Microsome predicted hepatic extraction ratio EH ([4]; human, well-stirred model): 0.67; NADPH-dependent degradation ([4]; incubation with human liver microsomes): rapid NADPH-dependent degradation; CLint scaled at 1 µM ([4]; liver microsomes, human, scaled from in vitro CLint, read-out: Microsome predicted in vivo CLint): 42 mL/min/kg; chromatographic logD [5]: 7.1; Solubility pH 2.0 ([6]; pH 2.0 (0.01 N HCl)): poor aqueous solubility; solubility ([6]; pH 2.0 (0.01 N HCl), read-out: Solubility pH 2.0): < 0.8 µg/mL; Solubility pH 6.5 ([6]; pH 6.5 phosphate buffer): poor aqueous solubility; solubility ([6]; pH 6.5 phosphate buffer, read-out: Solubility pH 6.5): 0.8 to 1.6 µg/mL (≈ 1.69 to 3.38 µM)
C/N=C1\S/C(=C\c2ccn(-c3ccccc3C(F)(F)F)c2)C(=O)N1C [Compound 41] | 4.7 | 4 | 54 to 55 °C | –
C/N=C1\S/C(=C\c2ccn(Cc3ccccc3)c2)C(=O)N1C [Compound 42] | 9.5 | > 290 | 128 to 130 °C | –
C/N=C1\S/C(=C\c2cnn(-c3ccccc3C(F)(F)F)c2)C(=O)N1C [Compound 43] | 3.6 | 34 | 170 to 172 °C | –
Cc1cc(/C=C2\SC(=O)NC2=O)c(C)n1-c1ccccc1C(F)(F)F [Compound 44] | 1.9 | 64 | 234 to 235 °C | –
Cc1cc(/C=C2\SC(=O)N(C)C2=O)c(C)n1-c1ccccc1 [Compound 45] | 2.2 | > 290 | 195 to 196 °C | –
Cc1cc(/C=C2/SC(=O)NC2=O)c(C)n1-c1ccccc1C(F)(F)F [Compound 46] | 8.4 | 43 | 205 to 210 °C | –
Cc1cc(/C=C2/SC(=N)NC2=O)c(C)n1-c1ccccc1C(F)(F)F [Compound 47] | 5.8 | 56 | 285 to 290 °C | –
Cc1cc(/C=C2/SC(=S)NC2=O)c(C)n1-c1ccccc1C(F)(F)F [Compound 48] | 21 | 9 | 255 to 258 °C | –
Cc1cc(/C=C2\NC(=O)NC2=O)c(C)n1-c1ccccc1C(F)(F)F [Compound 49] | 13 | 84 | 265 to 267 °C | –
Cc1cc(/C=C2\NC(=O)NC2=O)c(C)n1-c1ccccc1 [Compound 50] | 11 | > 320 | 267 to 270 °C (dec.) | –
Cc1cc(C=C2C(=O)NC(=O)NC2=O)c(C)n1-c1ccccc1C(F)(F)F [Compound 51] | – | – | > 300 °C | EC50 ([1]; K1, read-out: P. falc. EC50): 16 µM; EC50 at 72 h [3]: 120 µM
Cc1cc(C=C2C(=O)NC(=S)NC2=O)c(C)n1-c1ccccc1C(F)(F)F [Compound 52] | – | – | > 300 °C | EC50 ([1]; K1, read-out: P. falc. EC50): 29 µM; EC50 at 72 h [3]: 16 µM
CCOC(=O)C1=C(C)N/C(=C/c2cc(C)n(-c3ccccc3C(F)(F)F)c2C)C1=O [TDR32750] | – | – | – | selectivity compared to L6 mammalian cells ([7]; L6 vs P. falciparum): > 2000 fold; EC50 ([7]; read-out: EC50 against P. falciparum): 0.009 µM
CCN(CC)CCCC(C)Nc1ccnc2cc(Cl)ccc12 (stereo not drawn) [chloroquine] | – | – | – | EC50 ([1]; K1, read-out: EC50, control for P. falciparum K1): 0.1 µg/mL; % Reduction parasitaemia P. berghei ANKA GFP [8]: 99.97%; Survival ([8]; control 7 days): 20 days
